Results from US9211288B2 (priority 2012, dated 2015).
Where two headings read alike, the source gives them in different places.

Tests used:
[1] = system: acetylcholine levels in hippocampus; experiment: Microdialysis: acetylcholine levels in ventral hippocampus of freely moving Sprague Dawley rats (Examples 3 and 4); type: in vivo, rat
Source text: Adult, male Sprague Dawley rats were used in the experiments. The rats were anesthetized before surgery. The animals were placed in a stereotaxic frame (Kopf instruments, USA), and CMA12 guide cannulas (CMA Microdialysis, Sweden) were implanted aiming into the ventral hippocampus. Coordinates for the tips of the probes were AP=−5.3 mm to bregma, lateral (ML)=−4.8 mm to midline and ventral=−8.0 mm to dura (Paxinos and Watson).
Galanthamine, the chemical name of which is (4aS,6R,8aS)-4a,5,9,10,11,12-hexahydro-3-methoxy-11-methyl-6H-benzofuro[3a,3,2-ef][2]benzazepin-6-ol, was administered as the HBr salt. Vortioxetine was administered as the HBr salt. Vortioxetine and galantamine were prepared in 0.9% saline. Vortioxetine was administered subcutaneously at 10 mg/kg and galantamine was administered subcutaneously at 0.3 mg/kg and 1.0 mg/kg.
The day before the experiment, a microdialysis probe (CMA/12, 4 mm, PAES, MWKO 100 kDa) was inserted into the respective guide cannula in the awake rats. […] At the day of the experiment, samples were collected in 30 min intervals prior to administration to define the baseline. The data is presented as percentage of baseline within the same animal. Significance is defined as p<0.05. Animals received treatments according to experimental protocol and samples were collected at 30 minutes intervals.
The concentration of acetylcholine in the samples was determined using a Waters Acquity HPLC system equipped with a Sunshell RP-Aqua 2.1×100 mm, 2.6 um particle column fitted with a Waters Quattro Premier XE triple quadrupole mass spectrometer operating in the MS/MS mode. Components were separated using an isocratic flow of eluent A (100 mM ammonium acetate in milliQ water).
Injection of galantamine was 60 minutes prior to the injection of vortioxetine.

[2] = system: acetylcholine levels in ventral hippocampus; details: donepezil 1 mg/kg ip and vehicle; compared to vehicle+vehicle
Source text: Adult, male, Wistar rats were used for the experiments. The rats were anesthetized before surgery. Each animal was placed in a stereotaxic frame (Kopf Instruments, USA) and an incision was made on the top of the skull. A microdialysis probe with a 4 mm^2 exposed surface (polyacrylnitril membrane, Brainlink, the Netherlands) was implanted into the ventral hippocampus. […] The probes were attached to the skull with stainless steel screws and dental cement. Experiments started after one day of recovery.
Vortioxetine HBr was prepared in 10% 2-hydroxypropyl-β-cyclodextrin at 0, 5 or 10 mg/ml.
After two hours of prestabilisation, samples (30 μl) were collected and stored in 20 mM formic acid and 0.04% ascorbic acid (10 μl).
The concentration of acetylcholine in the samples was determined by HLPC fitted with tandem mass spectroscopy (MS/MS) for detection using acetyl-β-methyl-choline as internal standard. Chromatographic separation was performed on a reversed phase Phenomenex Synergi Max-RP column (2.0×150 mm, particle size 4 μm) at 50° C. Components were separated using an isocratic flow of eluent A (20 mM ammonium acetate, 5% acetonitril and 0.3% trifluoroacetic acid) at a flow rate of 0.25 ml/min. […]
The average of three pre-administration samples was set to 100%. […] All post-administration samples were expressed as a percentage of basal level within the same subject. […]

[3] = system: patients with major depressive disorder (MDD); details: cited from earlier work
[4] = type: in vivo; details: rat
Source text: In addition, blood samples were taken from each animal to measure the plasma level of the active ingredients.

serotonin transporter [5] = target: T1, serotonin transporter (Homo sapiens, UniProt P31645); details: humans, cited from earlier work
T1 construct: The serotonin transporter occupancy in humans was investigated; host or cells: human subjects, in vivo

[6] = system: patients suffering from MDD; details: long-term study; cited from earlier work
5-HT3-receptor = target: T2, 5-HT3-receptor (Rattus norvegicus, UniProt P35563); details: rats; vortioxetine dosed at 5-10 mg/kg; cited from earlier work
T2 construct: The receptor occupancy in rats following administration of vortioxetine has been investigated; host or cells: rat, in vivo / ex vivo occupancy
T2 sequence (P35563 24-483): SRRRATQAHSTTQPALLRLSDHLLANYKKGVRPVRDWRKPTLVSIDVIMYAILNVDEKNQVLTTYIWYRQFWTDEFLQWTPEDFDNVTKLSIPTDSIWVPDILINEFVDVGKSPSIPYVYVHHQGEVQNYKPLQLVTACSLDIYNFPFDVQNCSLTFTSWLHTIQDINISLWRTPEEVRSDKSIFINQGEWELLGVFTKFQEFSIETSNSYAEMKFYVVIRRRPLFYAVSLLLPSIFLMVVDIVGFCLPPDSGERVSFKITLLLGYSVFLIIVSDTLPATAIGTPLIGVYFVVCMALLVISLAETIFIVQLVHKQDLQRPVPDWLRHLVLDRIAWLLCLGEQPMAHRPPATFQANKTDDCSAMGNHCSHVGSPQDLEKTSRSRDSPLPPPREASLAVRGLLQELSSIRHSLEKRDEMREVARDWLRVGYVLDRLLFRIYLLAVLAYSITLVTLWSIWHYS

5-HT1B-receptor = target: T3, 5-HT1B-receptor (Rattus norvegicus, UniProt P28564); details: rats; vortioxetine dosed at 5-10 mg/kg; cited from earlier work
T3 construct: The receptor occupancy in rats following administration of vortioxetine has been investigated; host or cells: rat, in vivo / ex vivo occupancy

[7] = plasma; cited from earlier work
serotonin transporter [8] = target: T4, serotonin transporter (Rattus norvegicus, UniProt P31652); details: rats; vortioxetine dosed at 5-10 mg/kg; cited from earlier work
T4 construct: The receptor occupancy in rats following administration of vortioxetine has been investigated; host or cells: rat, in vivo / ex vivo occupancy

[9] = system: rats with scopolamine-induced memory impairment; experiment: Novel object recognition task (NOR) in rats with scopolamine-induced memory impairment (Example 5); type: in vivo, rat
Procedure: In a habituation phase, rats are allowed to explore the test room environment and two objects which differ in shape, colour and texture. In the test phase, one of the objects is exchanged so that the rats are exposed to one novel object and one familiar object. The time spent exploring the novel and the familiar object is recorded following the administration of test compounds.
Sprague-Dawley rats were used
One day 1 and day 2 of the experiment the rats received two habituation sessions to the test room environment including two objects (familiar objects). Each session lasted 6 minutes. […] At the test day, five groups of rats received a third habituation test (familiarization trial) after which they were removed from the test apparatus and one of the objects was replaced with a novel object. Four hours later, the rats were put back in the test apparatus (test phase) and the time used exploring of the familiar and the novel object was recorded.
The numbers in parenthesis indicate the number of rats in each group

T1 sequence (P31645 whole entry): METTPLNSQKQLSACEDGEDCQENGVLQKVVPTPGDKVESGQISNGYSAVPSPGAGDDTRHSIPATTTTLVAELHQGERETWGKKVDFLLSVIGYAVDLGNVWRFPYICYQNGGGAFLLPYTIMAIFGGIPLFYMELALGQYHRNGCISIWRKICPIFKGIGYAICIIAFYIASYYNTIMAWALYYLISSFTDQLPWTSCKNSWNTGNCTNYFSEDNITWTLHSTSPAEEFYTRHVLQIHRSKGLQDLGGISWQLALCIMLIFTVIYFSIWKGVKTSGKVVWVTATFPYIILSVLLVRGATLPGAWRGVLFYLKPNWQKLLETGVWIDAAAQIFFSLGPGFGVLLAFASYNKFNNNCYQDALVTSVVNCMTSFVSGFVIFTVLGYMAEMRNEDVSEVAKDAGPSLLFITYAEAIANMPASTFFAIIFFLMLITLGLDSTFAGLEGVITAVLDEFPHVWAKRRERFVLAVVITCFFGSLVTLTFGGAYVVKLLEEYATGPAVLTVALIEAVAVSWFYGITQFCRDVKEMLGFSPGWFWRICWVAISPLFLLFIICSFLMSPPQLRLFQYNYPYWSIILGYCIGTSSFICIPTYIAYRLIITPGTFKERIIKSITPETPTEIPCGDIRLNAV
T3 sequence (P28564 whole entry): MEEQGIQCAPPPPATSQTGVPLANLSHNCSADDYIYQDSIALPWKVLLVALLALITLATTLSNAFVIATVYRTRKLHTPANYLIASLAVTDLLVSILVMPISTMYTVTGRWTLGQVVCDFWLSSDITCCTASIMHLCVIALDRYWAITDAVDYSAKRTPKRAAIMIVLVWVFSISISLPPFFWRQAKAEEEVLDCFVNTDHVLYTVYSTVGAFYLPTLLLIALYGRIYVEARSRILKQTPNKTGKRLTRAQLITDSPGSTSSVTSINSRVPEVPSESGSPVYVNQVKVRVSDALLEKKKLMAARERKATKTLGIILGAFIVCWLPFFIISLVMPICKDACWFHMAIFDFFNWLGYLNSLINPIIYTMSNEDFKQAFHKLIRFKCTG
T4 sequence (P31652 whole entry): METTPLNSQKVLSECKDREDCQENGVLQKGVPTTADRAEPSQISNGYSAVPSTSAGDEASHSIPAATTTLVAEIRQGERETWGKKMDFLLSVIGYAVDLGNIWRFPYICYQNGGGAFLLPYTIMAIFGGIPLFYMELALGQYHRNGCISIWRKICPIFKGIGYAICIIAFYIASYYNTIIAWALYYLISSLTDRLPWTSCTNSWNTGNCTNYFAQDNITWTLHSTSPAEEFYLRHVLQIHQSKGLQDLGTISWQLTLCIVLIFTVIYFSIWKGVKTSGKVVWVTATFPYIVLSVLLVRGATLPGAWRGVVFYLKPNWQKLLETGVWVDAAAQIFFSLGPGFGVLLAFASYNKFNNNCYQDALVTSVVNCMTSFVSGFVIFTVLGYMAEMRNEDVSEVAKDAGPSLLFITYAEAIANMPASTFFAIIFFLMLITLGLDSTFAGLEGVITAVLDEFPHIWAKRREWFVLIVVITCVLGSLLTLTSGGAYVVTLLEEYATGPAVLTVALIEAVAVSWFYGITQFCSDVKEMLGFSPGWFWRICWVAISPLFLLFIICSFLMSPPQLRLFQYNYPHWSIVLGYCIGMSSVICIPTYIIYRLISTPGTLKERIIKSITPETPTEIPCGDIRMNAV

## COc1ccc2c3c1O[C@H]1C[C@@H](O)C=C[C@@]31CCN(C)C2 [galantamine, (4aS,6R,8aS)-4a,5,9,10,11,12-hexahydro-3-methoxy-11-methyl-6H-benzofuro[3a,3,2-ef][2]benzazepin-6-ol]
[1]; galantamine 0.3 and 1.0 mg/kg sc and vehicle
  acetylcholine levels in hippocampus: dose dependent, significant increase

## CCN(C)C(=O)Oc1cccc([C@H](C)N(C)C)c1 [rivastigmine, (S)—N-ethyl-N-methyl-3-[1-(dimethylamino)ethyl]-phenyl carbamate]
[1]; rivastigmine 0.2 and 0.6 mg/kg sc and vehicle
  acetylcholine levels in hippocampus: dose-dependently and significantly increases

## COc1cc2c(cc1OC)C(=O)C(CC1CCN(Cc3ccccc3)CC1)C2 (stereo not drawn) [Donepezil]
[2]
  acetylcholine levels in ventral hippocampus: significantly increased

## Cc1ccc(Sc2ccccc2N2CCNCC2)c(C)c1 [Vortioxetine, 1-[2-(2,4-dimethyl-phenylsulfanyl)-phenyl]-piperazine]
[3]; human, in vivo
  changes in clinical laboratory results, vital signs, weight, or ECG parameters: no clinically relevant changes
[3]; patients with MDD, six weeks
  treatment of depressive and anxious symptoms versus placebo: separates significantly from placebo
[4]; vortioxetine 10 mg/kg sc + donepezil 0.3 mg/kg ip
  Vortioxetine in plasma: 317 ng/mL
[4]; vortioxetine 10 mg/kg sc + donepezil 1 mg/kg ip
  Vortioxetine in plasma: 317 ng/mL
[1]; vortioxetine 10 mg/kg sc
  acetylcholine levels in hippocampus: significant increase
Serotonin transporter [5]; 5 mg/day
  serotonin transporter occupancy: 51%
Serotonin transporter [5]; 10 mg/day
  serotonin transporter occupancy: 63%
Serotonin transporter [5]; 20 mg/day
  serotonin transporter occupancy: 90%
[6]
  prevention of relapse: effective in preventing relapse
5-HT3-receptor
  occupancy at 5-HT3-receptor: almost full occupancy
5-HT1B-receptor
  occupancy at 5-HT1B-receptor: almost full occupancy
[7]
  half-life in humans: approximately 57 hours
Serotonin transporter [8]
  occupancy at serotonin transporter: almost full occupancy
[9]; scopolamine 0.5 mg/kg + vortioxetine 5 mg/kg ip 20 minutes prior to familiarization trial
  reversal of scopolamine-induced memory impairment (recognition index, RI): neither vortioxetine at 5 mg/kg nor donepezil at 0.5 mg/kg is able to reverse this impairment

## CN1[C@@H]2C[C@@H](OC(=O)[C@H](CO)c3ccccc3)C[C@H]1[C@@H]1O[C@@H]12 [scopolamine]
[9]; scopolamine 0.5 mg/kg ip 40 minutes prior to familiarization trial, versus saline, p<0.001
  effect on short-term memory (recognition index, RI): impairs short-term memory
